From ChEMBL document CHEMBL1201862, “PubChem BioAssay data set” (2004)
Values belong to the compound of their own block, whether it stands above or below them. Calls of active or inactive are those of the source.

What was measured:
[1] = non-specific cell cytotoxicity, dose response, cytotoxicity control for PAX8 inhibitor project, plate reader, dry powder samples (AID 743021); format: functional, cell-based
Paired box protein Pax-8 = Paired box protein Pax-8 (Homo sapiens, UniProt Q06710); assay: inhibitors of PAX8-driven TPO luciferase reporter, dose response, RMG-I cells, cherry-pick (AID 687027); format: functional, cell-based;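 further: luciferase reporter driven by Pax8 target thyroperoxidase promoter measured by SteadyGlo luminescence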
Paired box protein Pax-8, sequence (Q06710 whole entry): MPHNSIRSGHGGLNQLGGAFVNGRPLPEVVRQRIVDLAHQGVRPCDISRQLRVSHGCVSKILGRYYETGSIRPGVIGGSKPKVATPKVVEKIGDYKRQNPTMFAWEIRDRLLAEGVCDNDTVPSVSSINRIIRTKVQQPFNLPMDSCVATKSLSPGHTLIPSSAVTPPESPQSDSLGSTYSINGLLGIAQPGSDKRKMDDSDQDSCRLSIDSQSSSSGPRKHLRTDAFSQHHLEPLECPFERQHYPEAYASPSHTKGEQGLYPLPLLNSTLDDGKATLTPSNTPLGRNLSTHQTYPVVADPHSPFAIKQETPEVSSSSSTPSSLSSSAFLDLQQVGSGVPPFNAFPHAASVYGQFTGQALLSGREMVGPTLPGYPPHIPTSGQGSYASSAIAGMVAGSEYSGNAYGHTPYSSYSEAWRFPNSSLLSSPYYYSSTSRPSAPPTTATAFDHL

[2] = HepG2 cell cytotoxicity, dose response, cytotoxicity control for Shn3 inhibitor project, CellTiter-Glo, cherry-picked (AID 624134); format: functional, cell-based
[3] = Shn3 3'UTR reporter inhibitors, dose response, cell-based, Clone20 osteoblasts, firefly luciferase, cherry-picked (AID 624132); format: functional;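 further: firefly luciferase luminescence from reporter carrying the Shn3 3'UTR in osteoblasts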
Beta-galactosidase = Beta-galactosidase (Escherichia coli, UniProt Q8VNN2); assay: beta-galactosidase enzyme inhibitors and activators, dose response, artefact control for CCR6 antagonist project, biochemical, E. coli enzyme, set 3 (AID 504712); format: functional
Beta-galactosidase, sequence (Q8VNN2 whole entry): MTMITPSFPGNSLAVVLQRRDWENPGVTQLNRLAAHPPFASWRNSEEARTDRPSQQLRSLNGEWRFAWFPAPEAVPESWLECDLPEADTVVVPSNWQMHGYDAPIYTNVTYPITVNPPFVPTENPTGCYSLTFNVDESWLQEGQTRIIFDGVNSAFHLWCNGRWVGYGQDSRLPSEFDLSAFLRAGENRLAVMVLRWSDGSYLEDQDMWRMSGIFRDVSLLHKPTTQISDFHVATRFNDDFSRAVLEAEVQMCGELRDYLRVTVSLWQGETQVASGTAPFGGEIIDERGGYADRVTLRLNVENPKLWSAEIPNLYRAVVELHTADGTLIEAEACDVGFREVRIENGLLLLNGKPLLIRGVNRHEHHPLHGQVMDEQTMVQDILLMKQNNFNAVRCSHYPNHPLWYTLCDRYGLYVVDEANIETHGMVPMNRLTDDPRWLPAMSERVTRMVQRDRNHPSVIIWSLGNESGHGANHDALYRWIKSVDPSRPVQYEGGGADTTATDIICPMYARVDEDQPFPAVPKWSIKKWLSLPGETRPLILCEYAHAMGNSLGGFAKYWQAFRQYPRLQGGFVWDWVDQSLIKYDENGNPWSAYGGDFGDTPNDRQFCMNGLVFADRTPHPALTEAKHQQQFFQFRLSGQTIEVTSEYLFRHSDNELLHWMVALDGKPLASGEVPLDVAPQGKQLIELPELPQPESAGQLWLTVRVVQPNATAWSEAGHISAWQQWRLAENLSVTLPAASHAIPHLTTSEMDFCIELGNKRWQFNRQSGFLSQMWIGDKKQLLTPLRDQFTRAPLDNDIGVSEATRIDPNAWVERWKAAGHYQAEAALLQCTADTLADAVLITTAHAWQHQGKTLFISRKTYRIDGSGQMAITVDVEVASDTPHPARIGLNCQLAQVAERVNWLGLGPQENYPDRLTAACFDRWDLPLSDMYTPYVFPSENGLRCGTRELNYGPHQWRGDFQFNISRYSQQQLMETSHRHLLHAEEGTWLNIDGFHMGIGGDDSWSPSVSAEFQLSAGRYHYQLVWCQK

Keap1/Nrf2 = Keap1/Nrf2 (Homo sapiens, UniProt Q14145); assay: Keap1-Nrf2 protein-protein interaction inhibitors, dose response, biochemical, fluorescence polarization, cherry-picked samples (AID 588683)
Keap1/Nrf2, sequence (Q16236 whole entry): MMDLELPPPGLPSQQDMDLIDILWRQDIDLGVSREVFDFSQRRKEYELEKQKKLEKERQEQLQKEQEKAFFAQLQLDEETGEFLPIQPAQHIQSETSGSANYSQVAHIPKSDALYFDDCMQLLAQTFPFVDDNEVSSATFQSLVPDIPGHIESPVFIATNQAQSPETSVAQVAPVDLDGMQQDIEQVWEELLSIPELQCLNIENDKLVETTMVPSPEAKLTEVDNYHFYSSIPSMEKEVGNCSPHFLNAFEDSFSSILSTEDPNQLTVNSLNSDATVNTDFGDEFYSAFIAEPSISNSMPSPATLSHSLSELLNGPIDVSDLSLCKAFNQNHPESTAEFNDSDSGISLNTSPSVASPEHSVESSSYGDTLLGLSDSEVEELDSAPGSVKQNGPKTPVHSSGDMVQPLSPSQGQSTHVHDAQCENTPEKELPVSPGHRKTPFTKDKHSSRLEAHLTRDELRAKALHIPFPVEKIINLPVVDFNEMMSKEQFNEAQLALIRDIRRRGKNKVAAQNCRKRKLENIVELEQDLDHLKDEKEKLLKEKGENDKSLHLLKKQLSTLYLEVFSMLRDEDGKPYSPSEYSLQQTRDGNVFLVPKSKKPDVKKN
Keap1/Nrf2, sequence (Q14145 whole entry): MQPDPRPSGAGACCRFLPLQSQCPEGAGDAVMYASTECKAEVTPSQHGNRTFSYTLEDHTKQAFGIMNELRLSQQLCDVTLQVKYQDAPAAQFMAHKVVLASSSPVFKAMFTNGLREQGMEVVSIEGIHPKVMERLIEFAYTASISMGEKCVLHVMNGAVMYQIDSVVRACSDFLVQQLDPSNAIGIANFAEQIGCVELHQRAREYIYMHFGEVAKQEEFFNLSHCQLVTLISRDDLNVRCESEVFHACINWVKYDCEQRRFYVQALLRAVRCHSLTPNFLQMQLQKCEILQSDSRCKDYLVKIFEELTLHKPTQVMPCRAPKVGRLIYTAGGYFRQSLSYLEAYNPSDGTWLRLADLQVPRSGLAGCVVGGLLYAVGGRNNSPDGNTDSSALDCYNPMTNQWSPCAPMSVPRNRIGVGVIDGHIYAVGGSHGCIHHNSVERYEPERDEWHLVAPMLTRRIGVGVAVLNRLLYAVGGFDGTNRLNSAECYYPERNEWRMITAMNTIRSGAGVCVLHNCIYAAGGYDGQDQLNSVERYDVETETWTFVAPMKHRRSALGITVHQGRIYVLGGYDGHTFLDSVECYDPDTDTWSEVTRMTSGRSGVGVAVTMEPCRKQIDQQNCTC

ORF 73 = ORF 73 (Human herpesvirus 8, UniProt O40947); assay: inhibitors of C-LANA binding to LBS DNA, dose response, biochemical, fluorescence polarization, cherry-picked samples (AID 504725); parameters: species or system Human gammaherpesvirus 8;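 further: fluorescence polarization of a labeled DNA duplex reporting LANA DNA binding; potency is for inhibitors that block LANA binding to the DNA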
ORF 73, sequence (O40947 whole entry): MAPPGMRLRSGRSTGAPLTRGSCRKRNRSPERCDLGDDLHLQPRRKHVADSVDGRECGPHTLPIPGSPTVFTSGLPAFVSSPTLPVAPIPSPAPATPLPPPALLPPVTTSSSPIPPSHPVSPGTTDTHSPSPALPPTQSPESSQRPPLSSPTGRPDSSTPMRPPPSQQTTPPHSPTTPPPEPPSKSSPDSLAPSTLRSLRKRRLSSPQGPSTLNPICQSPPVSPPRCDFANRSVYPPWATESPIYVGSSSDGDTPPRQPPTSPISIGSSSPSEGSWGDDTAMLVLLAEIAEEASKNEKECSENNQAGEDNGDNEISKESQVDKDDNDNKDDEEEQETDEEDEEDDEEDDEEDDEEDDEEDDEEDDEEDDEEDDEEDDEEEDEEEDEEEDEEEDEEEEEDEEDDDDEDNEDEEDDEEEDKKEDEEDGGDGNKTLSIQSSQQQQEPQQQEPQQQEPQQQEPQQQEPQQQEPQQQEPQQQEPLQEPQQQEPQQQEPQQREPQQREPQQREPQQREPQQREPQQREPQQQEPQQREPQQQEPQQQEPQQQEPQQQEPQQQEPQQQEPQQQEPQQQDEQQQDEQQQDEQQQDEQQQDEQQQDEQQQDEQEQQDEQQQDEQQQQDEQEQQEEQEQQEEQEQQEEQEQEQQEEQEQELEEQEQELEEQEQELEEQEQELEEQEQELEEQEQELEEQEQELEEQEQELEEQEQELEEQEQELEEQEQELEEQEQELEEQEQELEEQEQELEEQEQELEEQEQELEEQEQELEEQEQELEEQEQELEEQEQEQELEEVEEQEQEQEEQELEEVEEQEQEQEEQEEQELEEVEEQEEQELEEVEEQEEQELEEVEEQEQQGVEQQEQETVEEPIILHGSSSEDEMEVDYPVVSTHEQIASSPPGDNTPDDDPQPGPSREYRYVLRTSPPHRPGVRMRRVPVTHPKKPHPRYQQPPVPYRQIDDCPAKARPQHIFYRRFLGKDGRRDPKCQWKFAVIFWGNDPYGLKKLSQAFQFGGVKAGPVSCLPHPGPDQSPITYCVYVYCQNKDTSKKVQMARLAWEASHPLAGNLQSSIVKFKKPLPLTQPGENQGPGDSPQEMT

Protein Tat = biological target: T1, Protein Tat (Human immunodeficiency virus type 1 group M subtype B (isolate HXB2)(HIV-1), UniProt P04608); format: functional;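 further: tat binding to TAR RNA read out by fluorescence polarization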
T1 sequence (P04608 whole entry): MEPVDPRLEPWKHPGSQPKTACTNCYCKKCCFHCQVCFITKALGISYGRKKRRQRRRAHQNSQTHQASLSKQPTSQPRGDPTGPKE

[4] = biological target: T2, Rac GTPase-activating protein 1 (Homo sapiens, UniProt Q9H0H5); assay: MgcRacGAP GTPase-activating activity inhibitors, confirmation, biochemical, ADP Hunter fluorescence, primary and confirmatory (AID 624330); format: functional
T2 sequence (Q9H0H5 whole entry): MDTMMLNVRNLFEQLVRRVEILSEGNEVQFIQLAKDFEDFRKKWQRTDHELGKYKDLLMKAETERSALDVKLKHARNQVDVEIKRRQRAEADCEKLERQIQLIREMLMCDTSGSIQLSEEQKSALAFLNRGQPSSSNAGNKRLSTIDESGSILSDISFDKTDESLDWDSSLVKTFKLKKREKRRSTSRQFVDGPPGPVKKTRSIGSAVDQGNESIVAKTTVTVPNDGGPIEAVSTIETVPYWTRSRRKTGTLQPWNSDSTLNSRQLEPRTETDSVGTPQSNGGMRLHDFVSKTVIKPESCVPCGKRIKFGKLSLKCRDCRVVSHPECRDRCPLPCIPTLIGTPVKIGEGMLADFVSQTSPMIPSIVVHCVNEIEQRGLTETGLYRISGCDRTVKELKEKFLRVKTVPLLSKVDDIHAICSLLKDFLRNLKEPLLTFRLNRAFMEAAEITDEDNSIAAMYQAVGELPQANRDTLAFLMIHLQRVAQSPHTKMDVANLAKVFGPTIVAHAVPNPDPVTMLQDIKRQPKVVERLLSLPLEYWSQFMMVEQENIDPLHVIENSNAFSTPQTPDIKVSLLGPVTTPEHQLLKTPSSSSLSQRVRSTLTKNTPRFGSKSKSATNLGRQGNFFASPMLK

[5] = biological target: Signal transducer and activator of transcription 3 (Homo sapiens, UniProt P40763); assay: STAT3 activators, late-stage profile, late-stage follow-up, cell-based, STAT1 reporter, BCL3 qPCR, cytotoxicity, panel member STAT3 Activation (AID 2049)
Signal transducer and activator of transcription 3, sequence (P40763 whole entry): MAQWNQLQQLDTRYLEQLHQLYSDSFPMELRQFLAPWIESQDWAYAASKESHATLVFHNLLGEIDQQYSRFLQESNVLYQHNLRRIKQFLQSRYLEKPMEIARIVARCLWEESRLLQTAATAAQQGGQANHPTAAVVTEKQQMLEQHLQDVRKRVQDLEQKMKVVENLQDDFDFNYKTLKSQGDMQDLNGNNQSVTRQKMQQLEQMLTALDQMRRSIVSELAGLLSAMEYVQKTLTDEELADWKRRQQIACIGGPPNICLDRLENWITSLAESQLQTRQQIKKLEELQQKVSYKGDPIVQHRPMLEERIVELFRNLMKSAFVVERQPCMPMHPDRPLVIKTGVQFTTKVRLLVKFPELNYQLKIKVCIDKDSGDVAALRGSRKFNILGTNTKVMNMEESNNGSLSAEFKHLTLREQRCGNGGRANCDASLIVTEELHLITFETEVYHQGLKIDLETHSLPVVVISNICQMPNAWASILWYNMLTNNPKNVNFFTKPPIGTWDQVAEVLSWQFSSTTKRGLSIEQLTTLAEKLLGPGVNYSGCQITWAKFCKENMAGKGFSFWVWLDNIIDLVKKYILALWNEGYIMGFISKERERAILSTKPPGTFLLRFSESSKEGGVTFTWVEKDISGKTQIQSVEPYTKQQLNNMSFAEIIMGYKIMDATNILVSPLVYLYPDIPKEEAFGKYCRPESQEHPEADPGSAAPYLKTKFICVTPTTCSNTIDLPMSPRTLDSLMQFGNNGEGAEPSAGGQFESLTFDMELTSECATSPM

[6] = biological target: Dual specificity protein phosphatase 3 (Homo sapiens, UniProt P51452); assay: VHR1 inhibitor Ki determination, SAR follow-up, biochemical, colorimetric (AID 2004)
Dual specificity protein phosphatase 3, sequence (P51452 whole entry): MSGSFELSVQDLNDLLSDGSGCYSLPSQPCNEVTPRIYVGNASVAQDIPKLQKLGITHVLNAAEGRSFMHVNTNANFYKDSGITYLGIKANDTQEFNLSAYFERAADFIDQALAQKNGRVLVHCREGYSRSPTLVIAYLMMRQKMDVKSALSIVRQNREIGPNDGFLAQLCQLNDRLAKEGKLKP

cells = format: functional, cell-based; conditions: PPC-1
MDA-MB-435 = assay: cells; format: functional, cell-based; conditions: Homo sapiens

SMILES: O=C(OCc1ccccc1)N(CCCCN(CCCNCc1ccccc1)C(=O)OCc1ccccc1)CCCNCc1ccccc1
AC50 [1]: 10.3 µM (active)
AC50 (Paired box protein Pax-8): 9.11 µM (active)
AC50 [2]: 4.16 µM (active)
AC50 [3]: 5.36 µM (active)
IC50 (Beta-galactosidase): > 66.6 µM (inactive)

AC50 (Keap1/Nrf2): 12.3 µM (active)
AC50 (ORF 73): 10 µM (active)
IC50 (Protein Tat): 6.32 µM (inconclusive)
IC50 [4]: 35 µM (active)
SMILES: Cc1nc2ccccc2n2c(O)c(CC(=O)O)cc12

SMILES: CN(C(=O)c1cc(C2CC2)on1)c1ccccc1
EC50 [5]: > 55.7 µM (inactive)

SMILES: Cc1cc(/C=C2/SC(=S)NC2=O)c(C)n1-c1cccc(Cl)c1
Ki [6]: 82 µM (inactive)

SMILES: COc1cc(-c2ccccc2)nc(S)n1
IC50 (cells): > 10 µM (inactive)
IC50 (MDA-MB-435): > 10 µM (inactive)
